Drawing on PubChem BioAssay (NCI), this text covers GI50 and TGI for one compound.

Some test systems named below: ACHN renal; SNB-75 CNS; OVCAR-8 ovarian; SF-539 CNS; SF-295 CNS; K-562 leukemia; UACC-257 melanoma; UO-31 renal; LOX IMVI melanoma; KM12 colon.
What all share (assay): NCI anticancer screen, dose series, 48 h

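A five-concentration, 48-hour dose response in 96-well plates underlies each endpoint, interpolated linearly between surrounding concentrations. The concentration for 50% growth inhibition is given as GI50. TGI is the concentration that stops growth completely.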

As for `Cc1cc(Cl)cc(Cc2cc(Cl)cc(C)c2O)c1O`, the GI50 in the experiment on ACHN renal was 2.26 µM; in the experiment with SNB-75 CNS it was 1.95 µM; with OVCAR-8 ovarian, 2.1 µM; with SF-539 CNS it was 2.45 µM; in the experiment with SF-295 CNS, 2.49 µM; in the experiment with K-562 leukemia, 3.08 µM. Besides, the GI50 is 3.02 µM in the experiment on UACC-257 melanoma, 2.06 µM in the experiment on UO-31 renal, 3 µM in the experiment on LOX IMVI melanoma and 2.85 µM with KM12 colon. Besides, the TGI turned out to be 7.26 µM with ACHN renal; 7.19 µM in the experiment on SNB-75 CNS; 6.16 µM in the experiment on OVCAR-8 ovarian; 6.62 µM with SF-539 CNS; 7.14 µM in the experiment on SF-295 CNS; 12.1 µM in the experiment on K-562 leukemia. Besides, the TGI is 12.3 µM with UACC-257 melanoma, 10.6 µM with UO-31 renal, 8.9 µM in the experiment on LOX IMVI melanoma and 10.2 µM in the experiment with KM12 colon.
